Data reported in article PMC10582335 (Frontiers in Pharmacology, 2023).
Like-named read-outs stand apart in the source and are kept apart here.

Legend:
[1] = almonertinib; ref Yang et al., 2020; cited from earlier work
Abcb1a mRNA (P-gp) = experiment: qRT-PCR of mRNA expression in rat tissues after multiple-dose almonertinib; assay type: in vivo; settings: rats given almonertinib for nine consecutive days, n = 3
Description: Sixty healthy rats were randomly divided into ten groups (n = 6). […] Blood samples were centrifuged at 3,500 g for 10 min, and then the supernatant was gathered and stored in a -80°C refrigerator. After, rat intestine, kidney and liver tissues were harvested for molecular analysis on the ninth or fifth day after treatment with the corresponding drugs for each group. The tissues were placed immediately at -80°C. qRT-PCR analysis was used to determine mRNA levels of Abcb1a, Abcg2 and Cyp3a1 in the liver and intestines, and Abcb1a and Abcg2 in the kidney of rats. Total RNA was isolated from frozen liver, intestine and kidney samples using TRNzol Universal according to the manufacturer's instructions. A Bio Tek Epoch (Bio Tek Instruments, Inc., Winooski, VT, United States) was employed to quantify the purity and concentration of the total RNA based on the ratio of the absorbance between 260 and 280 nm. RNA samples of 1 μg were transformed to complementary DNA (cDNA) using the […] Kit. The real-time PCR assays were accomplished using a two-step amplification method based on the recommendations in a SLAN-96S Real-Time PCR system (Shanghai Hongshi Medical Technology Co., Ltd. Shanghai, China). […] was used as an internal control, and the PCR cycling criteria were as follows: 95°C for 15 min, then 40 cycles of 95°C for 10, and 60°C for 32 s.

[2] = Stability in rat plasma under storage and processing conditions (QC samples, UPLC-MS/MS); settings: n = 6
Description: The stability of plasma samples was validated by the QC samples at three concentration levels in six replicates under various storage and processing conditions: autosampler for 24 h after preprocessing, room temperature for 8 h, −80°C for 30 days, and three freeze-thaw cycles (−80°C to room temperature). The samples were verified to be stable if the deviation of the samples was not more than ±15% of the standard concentration.

[3] = Pharmacokinetics of almonertinib in rats, alone and after multiple doses of rivaroxaban or apixaban; assay type: in vivo, Sprague-Dawley (SD) rats; settings: for AUC(0-inf) / AUC(0-t) / Cmax / Tmax / CL/F / MRT last / MRT inf / Vd/F / half-life: male, Sprague-Dawley, rat, plasma, po, 15 mg/kg, mean ± SD, n = 6; for CL/F: read-out: CLz/F (converted); for MRT last: read-out: MRT0-t; for MRT inf: read-out: MRT0-∞; for Vd/F: read-out: Vz/F; for half-life: read-out: t1/2z (converted)
Description: Chromatographic separation was performed using an XSelect HSS T3 column (2.1 mm × 100 mm, 2.5 µm, Waters, Milford, MA, United States) at 40°C by gradient elution. The mobile phase consisted of water (A) and acetonitrile (0.1% formic acid, B). […] The flow rate was 0.35 mL min^−1, and the injection volume was 6 µL. The positive ion mode with multiple reaction detection was used. […] The mass spectrometer conditions, including delustering potential (DP) and collision energy (CE) of the compounds, are shown in Table 1. […] Protein precipitation was used to process the plasma samples. 5 μL of mixed IS working solution, 50 µL of the plasma samples, and 150 µL of acetonitrile were vortex-mixed for 1.0 min. […] The supernatant was transferred to a 96-well plate for sample analysis. […] (Beijing, China). […] The study was approved and supervised by the Animal Ethics Committee of Hebei General Hospital (Shijiazhuang, China) (No. 2023024). Adaptive feeding (sufficient food and water) was performed for 1 week before the experiment. […] All rats were fasted for 12 h before starting the experiments while still given water. Sixty healthy rats were randomly divided into ten groups (n = 6). […] Blood samples were centrifuged at 3,500 g for 10 min, and then the supernatant was gathered and stored in a −80°C refrigerator. After, rat intestine, kidney and liver tissues were harvested for molecular analysis on the ninth or fifth day after treatment with the corresponding drugs for each group. The tissues were placed immediately at −80°C. DAS 2.1.1 Software (Mathematical Pharmacology Professional Committee of China, Shanghai, China) was applied to calculate pharmacokinetic parameters using non-compartmental analysis. SPSS 25.0 statistical software (SPSS Inc., Chicago, IL, United States) was applied to statistically analyze the main pharmacokinetic parameters, including AUC, Cmax, Tmax, t1/2, CLz/F, Vz/F, and MRT.

[4] = Freeze-thaw stability for three times, high QC (nominal 150 almonertinib, 800 apixaban, 1,500 rivaroxaban ng/mL)
[5] = Freeze-thaw stability for three times, low QC (nominal 1 almonertinib, 2 apixaban, 10 rivaroxaban ng/mL)
[6] = Freeze-thaw stability for three times, medium QC (nominal 80 almonertinib, 400 apixaban, 800 rivaroxaban ng/mL)
[7] = Room temperature for 8 h, high QC (nominal 150 almonertinib, 800 apixaban, 1,500 rivaroxaban ng/mL)
[8] = Room temperature for 8 h, low QC (nominal 1 almonertinib, 2 apixaban, 10 rivaroxaban ng/mL)
[9] = Room temperature for 8 h, medium QC (nominal 80 almonertinib, 400 apixaban, 800 rivaroxaban ng/mL)
[10] = −80°C for 30 days, high QC (nominal 150 almonertinib, 800 apixaban, 1,500 rivaroxaban ng/mL)
[11] = −80°C for 30 days, low QC (nominal 1 almonertinib, 2 apixaban, 10 rivaroxaban ng/mL)
[12] = −80°C for 30 days, medium QC (nominal 80 almonertinib, 400 apixaban, 800 rivaroxaban ng/mL)
[13] = almonertinib 15 mg/kg after multiple doses of rivaroxaban (group 9) compared with group 3, rats
[14] = rats, oral almonertinib 15 mg/kg after apixaban 0.5 mg/kg for five days (group 10)
[15] = rats, oral almonertinib 15 mg/kg after rivaroxaban 2 mg/kg for five days (group 9)
[16] = rats, oral almonertinib 15 mg/kg alone (group 3, control solvent of rivaroxaban)
[17] = rats, oral almonertinib 15 mg/kg alone (group 4, control solvent of apixaban)

SMILES: C=CC(=O)Nc1cc(Nc2nccc(-c3cn(C4CC4)c4ccccc34)n2)c(OC)cc1N(C)CCN(C)C [almonertinib, Almonertinib]
- half-life [1]: 30 to 35 h
- inhibition of mRNA expression of Abcb1a (Abcb1a mRNA (P-gp); intestine): 51.3%
- inhibition of mRNA expression of Abcb1a (Abcb1a mRNA (P-gp); kidney): 42.9%
- Stability: Accuracy (RE%) [2, 4]: −2.56%
- Stability: measured concentration, Mean ± SD [2, 4]: 146.17 ± 6.68 ng/mL
- Stability: Accuracy (RE%) [2, 5]: 1.47%
- Stability: measured concentration, Mean ± SD [2, 5]: 1.01 ± 0.09 ng/mL
- Stability: Accuracy (RE%) [2, 6]: 2.13%
- Stability: measured concentration, Mean ± SD [2, 6]: 81.7 ± 2.27 ng/mL
- Stability: Accuracy (RE%) [2, 7]: −1.67%
- Stability: measured concentration, Mean ± SD [2, 7]: 147.50 ± 9.83 ng/mL
- Stability: Accuracy (RE%) [2, 8]: 0.97%
- Stability: measured concentration, Mean ± SD [2, 8]: 1.01 ± 0.08 ng/mL
- Stability: Accuracy (RE%) [2, 9]: 0.60%
- Stability: measured concentration, Mean ± SD [2, 9]: 80.48 ± 6.42 ng/mL
- Stability: Accuracy (RE%) [2, 10]: −2.22%
- Stability: measured concentration, Mean ± SD [2, 10]: 146.67 ± 10.63 ng/mL
- Stability: Accuracy (RE%) [2, 11]: 2.33%
- Stability: measured concentration, Mean ± SD [2, 11]: 1.02 ± 0.10 ng/mL
- Stability: Accuracy (RE%) [2, 12]: 0.65%
- Stability: measured concentration, Mean ± SD [2, 12]: 80.52 ± 3.47 ng/mL
- all the pharmacokinetic parameters of almonertinib, comparison with almonertinib alone ([3]; almonertinib 15 mg/kg after multiple doses of apixaban 0.5 mg/kg (group 10) compared with group 4, rats): no statistically significant difference
- increase of Cmax of almonertinib ([3]; almonertinib 15 mg/kg after multiple doses of rivaroxaban (group 9) compared with almonertinib alone (group 3), rats): 1.26 fold
- decrease of CLz/F of almonertinib [3, 13]: 81.1%
- increase of AUC0-t of almonertinib [3, 13]: 1.17 fold
- increase of AUC0-∞ of almonertinib [3, 13]: 1.17 fold
- AUC(0-inf) [3, 14]: 293 ± 48.9 ng·h/mL
- AUC(0-t) [3, 14]: 267 ± 51.9 ng·h/mL
- Cmax [3, 14]: 42.1 ± 5.99 ng/mL
- Tmax [3, 14]: 2.5 ± 1.18 h
- CL/F [3, 14]: 877 mL/min/kg
- MRT last [3, 14]: 6.49 ± 0.35 h
- MRT inf [3, 14]: 9.31 ± 2.59 h
- Vd/F [3, 14]: 522 ± 318 L/kg
- half-life [3, 14]: 6.79 ± 4.15 h
- AUC(0-inf) [3, 15]: 299 ± 150 ng·h/mL
- AUC(0-t) [3, 15]: 299 ± 150 ng·h/mL
- Cmax [3, 15]: 51.4 ± 24.9 ng/mL
- Tmax [3, 15]: 3.17 ± 0.41 h
- CL/F [3, 15]: 1040 mL/min/kg
- MRT last [3, 15]: 5.15 ± 0.66 h
- MRT inf [3, 15]: 5.15 ± 0.66 h
- Vd/F [3, 15]: 244 ± 168 L/kg
- half-life [3, 15]: 2.7 ± 0.78 h
- AUC(0-inf) [3, 16]: 138 ± 31.3 ng·h/mL
- AUC(0-t) [3, 16]: 138 ± 31.3 ng·h/mL
- Cmax [3, 16]: 22.8 ± 4.76 ng/mL
- Tmax [3, 16]: 2.17 ± 1.13 h
- CL/F [3, 16]: 1880 mL/min/kg
- MRT last [3, 16]: 5.03 ± 0.73 h
- MRT inf [3, 16]: 5.03 ± 0.74 h
- Vd/F [3, 16]: 331 ± 125 L/kg
- half-life [3, 16]: 2.18 ± 1.05 h
- AUC(0-inf) [3, 17]: 299 ± 46.8 ng·h/mL
- AUC(0-t) [3, 17]: 281 ± 43.3 ng·h/mL
- Cmax [3, 17]: 39.8 ± 8.12 ng/mL
- Tmax [3, 17]: 1.83 ± 1.03 h
- CL/F [3, 17]: 855 mL/min/kg
- MRT last [3, 17]: 6.53 ± 0.97 h
- MRT inf [3, 17]: 8.35 ± 3.38 h
- Vd/F [3, 17]: 383 ± 316 L/kg
- half-life [3, 17]: 5.4 ± 4.96 h
